Data taken from US12268672B2, “PPARδ activator” (JAPAN SCIENCE AND TECHNOLOGY AGENCY, priority 2018, dated 2025).
Counter-ions that a name gives are not always drawn.

Assays:
PPARδ = assay: Luciferase assay with GAL4-Ppard and MH2004 reporter in CV1 cells; type: cell-based; details: for Light emission intensity (RLU) Average: 10 μM of each compound in DMSO, 12 hours; for Relative emission intensity Average: 10 μM of each compound, DMSO control defined as 1, n=3
Procedure: Among the compounds (1-1-4), the effects of compound (B-1), compound (B-2), and compound (B-3) on the transcriptional regulation of PPARδ were investigated. The effects on the transcriptional activity of PPARδ were measured by performing a luciferase assay on the cells treated with 10 μM of each compound dissolved in DMSO. Specifically, CV1 cells, which are cultured cells derived from African green monkey kidneys, were seeded on a 24-well plate (1×10^5 cells/well) and cultured until they became 70% confluent. DMEM containing 10% fetal bovine serum and 1% antibiotic was used as the culture medium. […] Then, the collected cells were lysed in a cell lysis buffer, suspended with a luminescent substrate (firefly luciferin), and the luminescence of the suspension was measured with a luminometer. In addition, the remaining suspension was mixed with Renilla luciferin and the amount of luminescence was measured with a luminometer. The result of the amount of light emitted by Renilla luciferin was used as the intrinsic control of gene transfer. Finally, the amount of luminescence of firefly luciferin was calculated as a light emission intensity (RLU) by dividing by the amount of luminescence of Renilla luciferin. The relative emission intensity of the reaction solution treated with each compound was determined as the transcriptional activation ability of PPARδ in each compound treatment, where the light emission intensity of the reaction solution to which an equal amount of DMSO was added (control) was defined as 1. The relative emission intensities were all 1.1 or more in the reaction solutions to which the compounds were added, and the transcriptional activity of PPARδ was increased. […] The effect of the obtained compound (A-4) on PPARδ activity was investigated. […] However, when the addition amount was 50 μM or more, the cells died and it was impossible to measure the transcription activity of PPARδ.

CV1 cells = assay: Cell death observed in the CV1 luciferase assay; type: cell-based; details: transcription activity impossible to measure
Procedure: Specifically, CV1 cells, which are cultured cells derived from African green monkey kidneys, were seeded on a 24-well plate (1×10^5 cells/well) and cultured until they became 70% confluent. DMEM containing 10% fetal bovine serum and 1% antibiotic was used as the culture medium. After reaching the desired cell density, the entire medium was removed, and a mixture obtained by mixing 2 μL of MH2004 (plasmid encoding a firefly luciferase gene having a Gal4 activation sequence upstream: 100 ng/μL), 1 μL of pRL-CMV (plasmid encoding the Renilla reniformis luciferase gene directly under the CMV promoter: 100 ng/μL), 2 μL of GAL4-Ppard (plasmid encoding Gal4-DNA binding region fused with PPARδ gene: 100 ng/μL) and 1.5 μL of PEI (polyethylenimine: manufactured by Invitrogen) with 45 μL culture medium “Opti-MEM” (registered trademark) (manufactured by Thermo Fisher Scientific) was added to each well, and the cells were cultured for about 36 hours.
The effect of the obtained compound (A-4) on PPARδ activity was investigated. Specifically, a luciferase assay was carried out in the same manner as in Example 8 except that compound (A-4) dissolved in DMSO (0.1%) was added to the reaction system as a test substance (n=3). […] However, when the addition amount was 50 μM or more, the cells died and it was impossible to measure the transcription activity of PPARδ.

[1] = test system: angptl4, pdk4 and cpt1a genes; assay: Quantitative PCR of genes whose expression is induced by PPARδ in C2C12 cells; type: cell-based, mouse; details: 10 μM compound (A-4), 16 hours, relative to Hprt, n=3
Procedure: The effect of compound (A-4) on the expression of the gene whose expression is induced by PPARδ was investigated. Specifically, compound (A-4) was added to mouse skeletal muscle-derived myoblast cell line C2C12 cells, and the expression levels of the angptl4, pdk4 and the cpt1a genes, whose expression is induced by PPARδ (NPL 12), were measured. In addition, the Hprt gene was used as an endogenous control, and GW0742 was used as a positive control for PPARδ activation.
First, C2C12 cells were seeded on a 24-well plate (1×10^5 cells/well) and cultured until 80-90% confluent. DMEM containing 10% bovine serum and 1% antibiotic was used as the culture medium. After culturing for 36 hours, when the target cell density was reached, the entire medium was replaced with a serum-free DMEM medium containing each concentration of compound (A-4), and the cells were cultured for 16 hours (n=3). After culturing, the medium was discarded, a trizol reagent (manufactured by Invitrogen) for RNA extraction was directly added to each well to lyse the cells, and then the total RNA was extracted by ethanol precipitation. Using the obtained total RNA as a template, cDNA was synthesized using the reverse transcriptase “Superscript” (manufactured by […]).
Quantitative PCR was performed using the obtained cDNA as a template. The cDNA of the template, the primer that amplifies each gene to be measured, and the polymerase mix “ssoFast EvaGreen Supermix” (manufactured by Biorad) for quantitative PCR were mixed. Analysis was performed using a real-time PCR detection system “CFX connect (registered trademark)” (manufactured by Biorad).
From the obtained gene expression data, the expression level of each gene was divided by the expression level of the endogenous control gene to calculate the relative expression level.

[2] = test system: recruitment of PPARδ to PPRE; assay: Chromatin immunoprecipitation of FLAG-PPARδ in differentiated C2C12-PPARδ cells; type: cell-based, mouse; details: 100 μM metformin or 1 μM GW501516, day 6 of differentiation, IgG control set as 1
Procedure: First, C2C12-PPARδ cells, in which FLAG-tagged PPARδ (FLAG-PPARδ) was constitutively over-expressed in C2C12 cells were prepared. […] The treated cells were subjected to chromatin immunoprecipitation (Conventional ChIP) using an antibody that recognizes the FLAG tag.

C2C12 cells = assay: Oxygen consumption rate (OCR) of C2C12 cells, extracellular flux analyzer; type: cell-based, mouse; details: 100 μM metformin or 10 μM GW501516 for 24 hours; for OCR after FCCP addition: compared to DMSO-treated cells
Procedure: PPARδ is known to induce the expression of lipid metabolism-related genes and enhance β-oxidation of fatty acids, especially in skeletal muscle. The PPARδ agonist is expected to have an effect of increasing mitochondrial activity. […] Specifically, using C2C12 cells, the oxygen consumption rate (OCR: Oxygen Consumption Rate) of the cells was measured by a cell metabolism-measuring device (extracellular flux analyzer manufactured by Agilemt Technologies Inc.).
In this metabolic measurement, four inhibitors were used to force changes in intracellular metabolism (FIG. 14). First, oligomycin, which inhibits Complex V of the electron transport chain, was added. […] Next, the uncoupling agent FCCP (Carbonyl cyanide-p-trifluoromethoxyphenylhydrazone) was added. FCCP forcibly discharges hydrogen ions in the mitochondrial membrane to the outside of the membrane to eliminate the proton concentration gradient. Since a proton concentration gradient is required to produce ATP, the TCA cycle and electron transport chain are maximally activated when the gradient is forcibly eliminated by FCCP. This makes it possible to measure the maximum respiration rate of cells. It is known that OCR at this time is further increased in cells in which fatty acid oxidation is enhanced. Finally, rotenone and antimycin were added. Rotenone inhibits the electron transport chain complex I, and antimycin inhibits complex III.

endogenous PPARα = molecular target: T1, endogenous PPARα (Homo sapiens, UniProt Q07869); assay: Affinity purification using Met-beads and HepG2 cell extract, binding to PPARα; details: HepG2 cell extract
T1 construct: endogenous in cells; host or cells: HepG2
T1 sequence (Q07869 1-468): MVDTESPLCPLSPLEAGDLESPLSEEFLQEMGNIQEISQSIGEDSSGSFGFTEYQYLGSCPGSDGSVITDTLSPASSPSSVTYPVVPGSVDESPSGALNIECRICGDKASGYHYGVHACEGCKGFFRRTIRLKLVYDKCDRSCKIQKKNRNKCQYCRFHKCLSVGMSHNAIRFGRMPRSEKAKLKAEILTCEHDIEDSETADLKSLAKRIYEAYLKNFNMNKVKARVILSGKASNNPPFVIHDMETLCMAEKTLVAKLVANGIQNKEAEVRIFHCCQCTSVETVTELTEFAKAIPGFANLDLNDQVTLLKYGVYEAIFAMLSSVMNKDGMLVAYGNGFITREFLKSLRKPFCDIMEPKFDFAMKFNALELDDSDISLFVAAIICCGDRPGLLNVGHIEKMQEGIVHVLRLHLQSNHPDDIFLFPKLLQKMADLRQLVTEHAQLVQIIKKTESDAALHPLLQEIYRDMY
Procedure: […] is a member of the nuclear receptor superfamily, with PPARα and […] as the other two family members. Affinity purification was performed using the Met-beads and HepG2 cell extract to verify the binding to endogenous PPARα.

endogenous AMPK = assay: Affinity purification using Met-beads and HepG2 cell extract, binding to AMPK; set-up: species or system human; details: HepG2 cell extract
C57BL/6 mice = assay: Final exercise tolerance test on treadmill (NOS50); type: in vivo; details: 25 mg/kg intraperitoneal
Procedure: For the metformin-non-administered group, an equal volume of PBS was intraperitoneally administered instead of the metformin/PBS solution.
The training for the final exercise tolerance test, in which the speed at start was 15 m/min and increased by 1 m/min every 10 minutes, and the running time after the speed reached 20 m/min was 10 minutes (1 hour in total), was performed 5 times a week for a total of 4 weeks using a treadmill device.
First, twenty 10-week-old male C57BL/6 mice were divided into 4 groups (5 mice per group). […] In addition, in order to average the motivation for exercise and exercise preference of individual mice in each group, the first exercise tolerance test was performed after training acclimatization to rank the mice, and the mice were divided into 4 groups so that the test results were even. Furthermore, in the test after the training period, the exercise tolerance was evaluated in such a manner that the running time was set as the time until the number of electrode contacts during the test reached 50 (number of shocks: NOS50), the speed at the start was set as 15 m/min and increased by 1 m/min every 10 minutes, and when the speed reached the maximum speed of 30 m/min, the running at the maximum speed was performed until NOS50 was reached.

human PPARδ = human PPARδ (Homo sapiens, UniProt Q03181); details: in the presence of PPARδ complex (hPPARδ, PGC1α, RXRα)
Sequence of human PPARδ (Q03181 whole entry): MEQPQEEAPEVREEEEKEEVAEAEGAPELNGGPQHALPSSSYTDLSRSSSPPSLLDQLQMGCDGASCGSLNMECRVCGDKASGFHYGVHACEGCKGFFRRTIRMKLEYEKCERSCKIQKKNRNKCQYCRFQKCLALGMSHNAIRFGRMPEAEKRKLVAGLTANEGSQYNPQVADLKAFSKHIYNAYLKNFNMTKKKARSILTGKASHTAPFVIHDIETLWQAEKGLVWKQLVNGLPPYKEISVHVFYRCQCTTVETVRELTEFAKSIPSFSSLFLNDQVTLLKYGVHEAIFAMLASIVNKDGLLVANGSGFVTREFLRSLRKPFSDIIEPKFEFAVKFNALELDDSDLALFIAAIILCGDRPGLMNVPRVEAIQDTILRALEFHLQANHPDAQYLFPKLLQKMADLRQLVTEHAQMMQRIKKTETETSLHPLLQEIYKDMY
Sequence of human PPARδ (P19793 whole entry partner): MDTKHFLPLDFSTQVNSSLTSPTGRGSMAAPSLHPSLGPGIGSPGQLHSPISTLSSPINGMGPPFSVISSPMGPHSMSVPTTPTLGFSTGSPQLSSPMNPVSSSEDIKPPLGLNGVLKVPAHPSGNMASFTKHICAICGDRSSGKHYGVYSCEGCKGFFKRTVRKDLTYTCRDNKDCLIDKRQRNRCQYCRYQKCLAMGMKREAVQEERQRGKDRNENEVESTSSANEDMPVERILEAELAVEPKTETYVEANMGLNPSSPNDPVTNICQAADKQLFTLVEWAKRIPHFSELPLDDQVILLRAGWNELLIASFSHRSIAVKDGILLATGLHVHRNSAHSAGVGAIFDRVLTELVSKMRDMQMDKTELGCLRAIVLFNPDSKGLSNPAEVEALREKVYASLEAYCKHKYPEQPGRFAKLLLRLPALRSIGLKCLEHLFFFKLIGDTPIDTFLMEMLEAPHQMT
Sequence of human PPARδ (Q9UBK2 whole entry partner): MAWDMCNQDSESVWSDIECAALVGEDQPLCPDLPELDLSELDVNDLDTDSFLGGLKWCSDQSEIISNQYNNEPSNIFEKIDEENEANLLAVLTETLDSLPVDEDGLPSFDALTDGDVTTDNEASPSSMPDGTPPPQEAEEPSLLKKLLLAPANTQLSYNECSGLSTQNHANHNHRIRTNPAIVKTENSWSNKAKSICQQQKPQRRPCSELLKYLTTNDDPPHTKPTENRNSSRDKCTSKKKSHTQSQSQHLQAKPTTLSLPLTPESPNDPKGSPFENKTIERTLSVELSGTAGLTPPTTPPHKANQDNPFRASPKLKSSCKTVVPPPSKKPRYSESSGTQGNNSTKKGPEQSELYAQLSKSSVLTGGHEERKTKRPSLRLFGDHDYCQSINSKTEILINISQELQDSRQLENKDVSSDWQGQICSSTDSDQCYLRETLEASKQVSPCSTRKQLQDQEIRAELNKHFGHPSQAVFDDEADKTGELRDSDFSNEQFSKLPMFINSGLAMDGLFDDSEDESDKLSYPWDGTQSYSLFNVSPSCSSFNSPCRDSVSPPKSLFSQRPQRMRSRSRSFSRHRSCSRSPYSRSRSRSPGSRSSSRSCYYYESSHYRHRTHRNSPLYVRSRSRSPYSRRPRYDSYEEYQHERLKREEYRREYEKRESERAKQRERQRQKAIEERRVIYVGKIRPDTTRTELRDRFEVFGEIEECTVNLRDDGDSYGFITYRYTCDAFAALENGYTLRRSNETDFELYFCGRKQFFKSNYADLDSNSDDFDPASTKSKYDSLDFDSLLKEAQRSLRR

Compound | Light emission intensity (RLU) Average (PPARδ; n=3) | Relative emission intensity Average (PPARδ) | expression level of the angptl4 gene [1] | expression level of the cpt1a gene [1] | expression level of the pdk4 gene [1] | base OCR before the inhibitor treatment (C2C12 cells) | OCR after FCCP addition (C2C12 cells) | other results
COc1cc(CNC(=N)N)ccc1OCc1ccccc1 [compound (B-3)] | 457033 | 2.04 | – | – | – | – | – | –
Cc1cc(SCc2sc(-c3ccc(C(F)(F)F)c(F)c3)nc2C)ccc1CNC(=N)N [compound (A-4), 1-{4-[({2-[3-fluoro-4-(trifluoromethyl)phenyl]4-methylthiazole-5-yl}methyl)thio]-2-methylbenzyl}guanidine] | – | – | increased | increased | increased | – | – | transcriptional activity of PPARδ (relative transcriptional activation ability) (PPARδ; depending on the amount added, DMSO (0.1%), n=3): tended to increase; addition amount at which the cells died (CV1 cells): ≥ 50 µM
Cc1cc(SCc2sc(-c3ccc(C(F)(F)F)cc3)nc2C)ccc1OCC(=O)O [GW501516] | – | – | – | – | – | did not change | increase in OCR | recruitment of PPARδ in the vicinity of PPRE on promoters of Angptl4, Pdk4, Plin2 and Ucp3 genes [2]: recruited
Cc1cc(SCc2sc(-c3ccc(C(F)(F)F)c(F)c3)nc2C)ccc1OCC(=O)O [GW0742] | – | – | increased | increased | increased | – | – | –
CN(C)C(=N)N=C(N)N [metformin] | – | – | – | – | – | did not change | increase in OCR | binding between metformin and PPARα (endogenous PPARα): not detected; binding between metformin and AMPK (endogenous AMPK): not detected; exercise tolerance, metformin administration without training (C57BL/6 mice; 4 weeks, compared with control group): did not show an improvement in exercise tolerance; exercise tolerance, training + metformin administration (C57BL/6 mice; training 5 times a week for 4 weeks, compared with training group): higher exercise tolerance than the training group; activation ability compared with GW501516 (human PPARδ): about the same as that of GW501516
N=C(N)NCc1ccc(COCc2ccccc2)cc1 [compound (B-1), N-({4-[(benzyloxy)methyl]phenyl}methyl) guanidine hydrobromide] | 250467 | 1.12 | – | – | – | – | – | –
